We go through eight molecules from PubChem BioAssay (NCI).

Some test systems named below: OVCAR-4 ovarian; HL-60(TB) leukemia; HOP-62 NSCLC; M14 melanoma; MDA-MB-231 breast; SK-OV-3 ovarian; MDA-N; SN12C renal; CCRF-CEM leukemia; DU-145 prostate; MDA-MB-435; SNB-75 CNS; MALME-3M melanoma; NCI-H460 lung; A498 renal; HCT-116 colon; TK-10 renal; HCC-2998 colon; SW-620 colon; SK-MEL-2 melanoma.
Common to all, as to assay: NCI tumour cell line growth inhibition, 48 h

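Test compounds were applied to cells in 96-well plates for 48 hours at 5 doses. TGI denotes the concentration required for complete inhibition of growth.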 Where a SMILES comes first, the peptide text is derived from it. Bridges are numbered along the chain shown (N, C = ends). [ ]: non-standard residue; d: D form. The star is where a group is joined. Cbz = O=C(OCc1ccccc1)*; Aib = CC(C)(N)C(=O)O; OBn = c1ccc(CO*)cc1; βAla = NCCC(=O)O

Take `COc1ccc(-c2c(C(C)=O)c(-c3ccccc3)n(C3OC(COC(C)=O)C(OC(C)=O)C(OC(C)=O)C3OC(C)=O)c(=S)c2C#N)cc1` (stereo not drawn): the TGI with OVCAR-4 ovarian, in the test with HL-60(TB) leukemia, with HOP-62 NSCLC, in the test with M14 melanoma, with MDA-MB-231 breast and in the test with SK-OV-3 ovarian was more than 100 µM in each case. Further, the TGI with MDA-N, in the test on SN12C renal, with CCRF-CEM leukemia, with DU-145 prostate, in the test on MDA-MB-435 and with SNB-75 CNS was more than 100 µM each time. The TGI with MALME-3M melanoma, in the test with NCI-H460 lung, with A498 renal, in the test with HCT-116 colon, in the test with TK-10 renal and with HCC-2998 colon was more than 100 µM in each case. For the same molecule, the TGI with SW-620 colon is more than 100 µM.

Regarding `O=C(CCc1ccc(O)cc1)NCCc1ccc(O)cc1`, the TGI with OVCAR-4 ovarian, with HL-60(TB) leukemia, with HOP-62 NSCLC, with SK-MEL-2 melanoma, in the test on M14 melanoma and with MDA-MB-231 breast was more than 100 µM throughout. In addition, the TGI in the test with SK-OV-3 ovarian, in the test with MDA-N, with SN12C renal, in the test with CCRF-CEM leukemia, in the test on DU-145 prostate and with MDA-MB-435 was more than 100 µM in each case. Further, the TGI in the test on MALME-3M melanoma, in the test with NCI-H460 lung, in the test with A498 renal, with HCT-116 colon, in the test on TK-10 renal and in the test with HCC-2998 colon was more than 100 µM in each case.

As to `Nc1ccc(C(=O)Nn2c(-c3ccccc3)nc3ccccc3c2=O)cc1`, the TGI in the test on OVCAR-4 ovarian, with HL-60(TB) leukemia, with HOP-62 NSCLC, in the test on M14 melanoma, in the test on MDA-MB-231 breast and with SK-OV-3 ovarian was more than 100 µM in each case. For the same molecule, the TGI with MDA-N, in the test on SN12C renal, in the test on CCRF-CEM leukemia, in the test with DU-145 prostate, with MDA-MB-435 and with SNB-75 CNS was more than 100 µM in each case. The TGI in the test on MALME-3M melanoma, with NCI-H460 lung, in the test on A498 renal, with HCT-116 colon, with TK-10 renal and in the test with HCC-2998 colon was more than 100 µM each time. This molecule also displayed a TGI in the test with SW-620 colon of more than 100 µM.

As to `O=C(CC(=O)N(C(=O)c1ccccc1)c1ccc(Cl)cc1)N/N=C\c1cc(N=Nc2ccccc2Cl)ccc1O`, the TGI in the test with HL-60(TB) leukemia is 26.2 µM; with HOP-62 NSCLC, more than 100 µM; with M14 melanoma, more than 100 µM; in the test on MDA-MB-231 breast, more than 100 µM; in the test with SK-OV-3 ovarian, more than 100 µM; in the test on MDA-N, more than 100 µM. The TGI with SN12C renal is more than 100 µM; with CCRF-CEM leukemia it was 51.4 µM; in the test with DU-145 prostate, more than 100 µM; in the test with MDA-MB-435 it was more than 100 µM; with SNB-75 CNS it was 36.6 µM; in the test with MALME-3M melanoma, more than 100 µM. Moreover, the TGI with NCI-H460 lung is more than 100 µM; in the test on A498 renal, 85.6 µM; with HCT-116 colon, more than 100 µM; with TK-10 renal, more than 100 µM; in the test with HCC-2998 colon, more than 100 µM; with SW-620 colon it was more than 100 µM.

Take `CCOC(=O)N/N=C(/N)Cc1ccccc1`: the TGI with HL-60(TB) leukemia, in the test on HOP-62 NSCLC, in the test with SK-MEL-2 melanoma, in the test with M14 melanoma, with MDA-MB-231 breast and in the test with SK-OV-3 ovarian was more than 100 µM each time. The TGI in the test with MDA-N, with SN12C renal, in the test with CCRF-CEM leukemia, in the test on DU-145 prostate, with MDA-MB-435 and with SNB-75 CNS was more than 100 µM each time. Moreover, the TGI in the test on MALME-3M melanoma, with NCI-H460 lung, with A498 renal, with HCT-116 colon, in the test on TK-10 renal and in the test on HCC-2998 colon was more than 100 µM throughout. This molecule came in with a TGI with SW-620 colon of more than 100 µM.

Consider `O=[N+]([O-])C(C(Cl)=C(Cl)Cl)=C(N1CCOCC1)N1CCOCC1`, for which the TGI in the test with OVCAR-4 ovarian, in the test with HL-60(TB) leukemia, with HOP-62 NSCLC, with SK-MEL-2 melanoma, with M14 melanoma and in the test with MDA-MB-231 breast was more than 100 µM in each case. For the same molecule, the TGI with SK-OV-3 ovarian, in the test with MDA-N, in the test on SN12C renal, in the test on CCRF-CEM leukemia, with DU-145 prostate and in the test with MDA-MB-435 was more than 100 µM in each case. Moreover, the TGI in the test on SNB-75 CNS, in the test on MALME-3M melanoma, with A498 renal, in the test on HCT-116 colon, with TK-10 renal and with HCC-2998 colon was more than 100 µM throughout.

Regarding `O=C1SCC(O)=C1/C=N/Nc1nc2ccccc2o1`, the TGI was more than 100 µM in the test with OVCAR-4 ovarian; 24.7 µM with HL-60(TB) leukemia; more than 100 µM in the test on HOP-62 NSCLC; more than 100 µM in the test on SK-MEL-2 melanoma; 57.5 µM in the test with M14 melanoma; more than 100 µM in the test with MDA-MB-231 breast. Further, the TGI with SK-OV-3 ovarian is 82.8 µM; in the test with MDA-N, more than 100 µM; in the test on SN12C renal, 96 µM; in the test on CCRF-CEM leukemia, 48.8 µM; with DU-145 prostate, more than 100 µM; with MDA-MB-435 it was more than 100 µM. The TGI in the test with MALME-3M melanoma is more than 100 µM; in the test with NCI-H460 lung it was more than 100 µM; with A498 renal, more than 100 µM; in the test on HCT-116 colon it was 50 µM; in the test with TK-10 renal, 92.8 µM; with HCC-2998 colon it was more than 100 µM. In the test on SW-620 colon, this molecule came in with a TGI of more than 100 µM.

As to `CC1(C)NC(=O)C(NC(=O)C(CC(=O)OCc2ccccc2)NC(=O)OCc2ccccc2)CCCCNC(=O)CCNC1=O` (stereo not drawn) (Cbz-D(OBn)K[Aib][βAla]; lactam 2-C; configuration not given here), the TGI with OVCAR-4 ovarian, in the test on HL-60(TB) leukemia, in the test with HOP-62 NSCLC, with M14 melanoma, in the test on MDA-MB-231 breast and with SK-OV-3 ovarian was more than 100 µM each time. In addition, the TGI in the test with MDA-N, in the test with SN12C renal, in the test on DU-145 prostate, in the test on MDA-MB-435, in the test on SNB-75 CNS and in the test with MALME-3M melanoma was more than 100 µM in each case. For the same molecule, the TGI in the test on NCI-H460 lung, with A498 renal, in the test with HCT-116 colon, in the test on TK-10 renal, with HCC-2998 colon and with SW-620 colon was more than 100 µM each time.
